Experimental data as given in patent US9632088B2, “Methods and compositions for gamma-secretase assay” (MEMORIAL SLOAN-KETTERING CANCER CENTER, priority 2010, dated 2017).

How the values were obtained:
[1] = target: T1, γ-secretase (HeLa membrane) (Homo sapiens, UniProt P49768); assay: In vitro N1-Sb1 γ-secretase assay (ALPHA detection with SM320), HeLa membrane; type: biochemical; settings: 0.25% CHAPSO; for IC50: read-out: IC50 in inhibiting N1-Sb1 cleavage
T1 construct: host or cells: HeLa-S3 cells, total membrane fraction
Protocol: HeLa membrane fraction was isolated from HeLa-S3 cells (National Cell Culture Center). The cell pellet was resuspended in Buffer A (50 mM MES, 150 mM KCl, 5 mM CaCl2, 5 mM MgCl2) and lysed by passage through a French Press. N2a cells (murine neuroblastoma cells) over-expressing wild-type PS1, or mutants M146L or E280A, were obtained from Dr. Sangram Sisodia (University of Chicago, Chicago, Ill.). These cells were maintained in 50% Dulbecco's modified Eagle's medium high glucose, 50% Opti-Mem Reduced Serum Media, and 10% fetal calf serum. Cultured cells were pelleted by centrifugation and resuspended in hypotonic buffer (40 mM Tris, pH 7.4, 10 mM NaCl, 1 mM EDTA, and 0.5 mM DTT) for 20 minutes before being lysed with a dounce homogenizer. Nuclear debris from the HeLa and N2a cells were pelleted at 3000 rpm for 30 minutes. The resulting supernatants were ultracentrifuged at 100,000×g for 1 hour. The pellet that contained total cell membrane was resuspended in Buffer A. Mouse brains overexpressing knock-in wild type or M146V PS1 (gift from Dr. Hui Zheng, Amylin Pharmaceuticals, San Diego, Calif.) were homogenized with dounce homogenizer. The cell lysate was centrifuged at 3000 rpm for 30 minutes. The supernatants were ultracentrifuged at 100,000×g for 1 hour. Protein concentration was determined with the DC Protein Assay Kit according to the manufacturer's instructions (Bio-Rad, Hercules, Calif.).
An in vitro γ-secretase assay using a novel recombinant APP-derived substrate (termed “Sb4”) is disclosed in co-pending application U.S. Ser. No. 12/776,141. In the present assay based on a Notch-derived substrate, N1-Sb1 was incubated with the cell membrane fraction, prepared as described above, in the presence of 0.25% CHAPSO and 1×PIPES buffer (50 mM PIPES, pH 7.0, 150 mM KCl, 5 mM CaCl2, 5 mM MgCl2. The reaction was incubated at 37° C. for 2 hours. The Perkin Elmer AlphaScreen™ detection system was employed to assay for Notch cleavage. AlphaScreen (PerkinElmer Life and Analytical Sciences, Shelton, Conn.) is a bead based non-radioactive Amplified Luminescent Proximity Homogeneous Assay (ALPHA). When a biological interaction brings the beads together, a cascade of chemical reactions acts to produce a greatly amplified signal. Specifically, upon laser excitation, a photosensitizer in the “Donor” bead converts ambient (triplet) oxygen to the more reactive singlet state. […] As a result no fluorescence signal at 520-620 nm is produced.
In the present system, antibody SM320, Protein A-conjugated acceptor beads, and Streptavidin-conjugated donor beads (PerkinElmer) were added to the reaction at a final concentration of 0.2 μg/ml, 2.5 μg/ml and 5 μg/ml, respectively (diagrammed in FIG. 5A). […] The ALPHA signal was detected using the Envision plate reader (Perkin Elmer). The reactions were excited at 680 nm and signal was detected at 615 nm.
HeLa membrane was incubated with N1-Sb1 substrate in the presence of 0.25% CHAPSO. The γ-secretase cleavage product (cN1-Sb1) was detected by the PerkinElmer proximity assay (ALPHA) using the SM320 antibody, Protein A-conjugated acceptor-beads (which bind SM320) and streptavidin-conjugated donor-beads (which bind biotin) (FIG. 5A). cN1-Sb1 levels in DMSO-treated assay was 10-fold higher than in the presence of the inhibitor L-685,458 (L458; structure shown below)-treated assay. […]

[2] = target: T2, γ-secretase (Homo sapiens, UniProt P49768); assay: 1536-well format ALPHA-based γ-secretase assay, control validation; type: biochemical; settings: low control: 250 nM Compound E, 1% DMSO, full 1536-well plate
T2 construct: endogenous in cells; host or cells: HEK293 cells transiently transfected with myc-tagged N1-ΔE (substrate only)
Protocol: Based on the 384-well assay format described above, to the assay was miniaturized to a 1536-well format for automated high-throughput drug screening. Concentrations of SM320, protein A conjugated acceptor beads and streptavidin conjugated donor beads were titrated to minimize reagent usage. […] The assay was validated by comparing the high and low control signals from full 1536-well plates. The high controls contained 1% final DMSO concentration (v/v), while the low controls contains 250 nM of Compound E also at 1% final DMSO concentration (v/v).

[3] = target: T3, WT PS1 NTF (γ-secretase active site) (Homo sapiens, UniProt P49768); assay: Photolabeling of PS1 NTF, N2a wild-type PS1 membrane; type: binding, murine; settings: probes 10 nM, 0.25% CHAPSO, normalized to JC8, excess L458 as competitor
T3 construct: total membrane
Protocol: Total cell membrane was pre-incubated in the presence of DMSO or 1 μM L458 in PIPES buffer containing 0.25% CHAPSO at 37° C. for 30 minutes. Then, photolabeling probes (JC8, L646 or GY4) (Li et al., 2000, Nature, 405:689-694, Chun et al., 2004, J Org. Chem., 69:7344-7347, Yang et al., 2009, Bioorg Med Chem. Lett., 19:922-925) at 10 nM were added and incubated for an additional 1 hour at 37° C. The reaction mixtures were irradiated at 350 nm for 45 minutes and solubilize with RIPA buffer. Biotinylated proteins in the soluble fraction were captured by Streptavidin resin (Pierce) overnight at 4° C. Bound proteins were eluted by boiling with SDS sample buffer and analyzed by western blotting with anti-PS1 NTF antibodies.
L646, GY4 and JC8, which photolabel the S2, S1, and S1′ subsites within the active site of PS1, respectively, were used for this study (FIG. 10b). Membranes isolated from N2a cells stably expressing wild-type (WT), M146L, or E280A PS1 were photolabeled with JC8, GY4 or L646 in the presence of 0.25% CHAPSO. […] After […] irradiation, biotinylated proteins were isolated with streptavidin beads and analyzed by western blotting with anti-PS1 NTF antibodies. […] To eliminate the effect of various amounts of γ-secretase existing in different cell lines, we normalized each probe with JC8 labeling in the same cell lines.

cN1-Sb1 levels in DMSO-treated assay versus inhibitor-treated assay ([1]; fold higher in DMSO) | Photolabeling of PS1 NTF (western blot) [3] | Compound | IC50 [1] | Average (ALPHA signal) [2]
 |  | CC(NC(=O)Cc1cc(F)cc(F)c1)C(=O)NC1N=C(c2ccccc2)c2ccccc2N(C)C1=O (centres unmarked) [Compound E] | 1 nM | 319
10 fold | completely prevented labeling | CC(C)C[C@H](NC(=O)[C@H](Cc1ccccc1)C[C@@H](O)[C@H](Cc1ccccc1)NC(=O)OC(C)(C)C)C(=O)N[C@@H](Cc1ccccc1)C(N)=O [L458] | 0.7 nM | 
